Holding throughout (assay type): in vivo, Sprague Dawley rats
Assay [1] has as its system ovariectomized rats. The assay can be described thus: Four Day Ovariectomized Rat Model: Serum Cholesterol Analysis. The conditions noted are these: OVX rats, orally administered at 0.1 mg/kg/day, four days. The source says:
(§1) Estrogenicity: Four Day Ovariectomized Rat Model
(§2) Seventy-five day old female Sprague Dawley rats (weight range of 225 g-275 g) were obtained from Charles River Laboratories (Portage, Mich.). The animals were either bilaterally ovariectomized (OVX) or exposed to a Sham surgical procedure at Charles River Laboratories, and then shipped after one week. Upon arrival, these rats were housed in metal hanging cases in groups of three or four animals per cage, and had ad libitum access to food (Teklad diet, TD 89222, 0.5% calcium, 0.4% phosphorous; Madison, Wis.) and water. Room temperature was maintained at 22.2° C.±1.7° C. with a minimum relative humidity of 40%. The photoperiod in the room was twelve hours light and twelve hours dark. […]
(§3) After a one-week acclimation period (two weeks post-OVX), daily dosing with test compound and 17α-ethynylestradiol was initiated. […] The animals were then sacrificed by asphyxiation with CO2, the uterus was removed through a midline incision, and a wet uterine weight was determined.
The blood samples, collected as described above, were allowed to clot at room temperature for two hours, and serum was obtained following centrifugation for ten minutes at 3000 rpm. Serum cholesterol was determined using a high-performance cholesterol assay (Boehringer Mannheim Diagnostics, Indianapolis, Ind.). […] Cholesterol concentration was then calculated against a standard curve.

Assay [2] concerns ovariectomized rats. The assay can be described thus: Four Day Ovariectomized Rat Model: wet uterine weight. The conditions noted are these: OVX rats, orally administered at 0.1 mg/kg/day, four days, versus untreated ovariectomized animals.
From the text: as §1
Seventy-five day old female Sprague Dawley rats (weight range of 225 g-275 g) were obtained from Charles River Laboratories (Portage, Mich.). The animals were either bilaterally ovariectomized (OVX) or exposed to a Sham surgical procedure at Charles River Laboratories, and then shipped after one week. Upon arrival, these rats were housed in metal hanging cases in groups of three or four animals per cage, and had ad libitum access to food (Teklad diet, TD 89222, 0.5% calcium, 0.4% phosphorous; Madison, Wis.) and water. Room temperature was maintained at 22.2° C.±1.7° C. with a minimum relative humidity of 40%. The photoperiod in the room was twelve hours light and twelve hours dark. Comparative data were obtained between untreated ovariectomized rats, ovariectomized rats treated with 17α-ethynylestradiol (EE2), and ovariectomized rats treated with representative compounds of the present invention.
After a one-week acclimation period (two weeks post-OVX), daily dosing with test compound and 17α-ethynylestradiol was initiated. The test compounds or 17α-ethynylestradiol (Sigma Chemical Co., St. Louis, Mo.) were given orally, unless otherwise stated, as a suspension in 20% cyclodextrin (CDX). […] The animals were then sacrificed by asphyxiation with CO2, the uterus was removed through a midline incision, and a wet uterine weight was determined.

The test system of assay [3] is ovariectomized rats. The assay can be described thus: Four Day Ovariectomized Rat Model: Uterine Eosinophil Peroxidase (EPO) Assay. The conditions noted are these: OVX rats, oral daily for four days.
From the text: as §1, §2, §3
Uteri were kept at 4° C. until time of enzymatic analysis. […] Upon addition of 0.01% hydrogen peroxide and […] o-phenylenediamine (final concentrations) in Tris buffer, the increase in absorbance was monitored for one minute at 450 nm. […] The maximal velocity of a fifteen second interval was determined over the initial, linear portion of the reaction curve.

Assay [4] deals with ovariectomized rats. In words: Bone Sparing: Five Week Ovariectomized Rat Model, femur X-ray Bone Assay. The conditions noted are these: OVX rats, oral gavage daily for 35 days, dose of 0.01 mg/kg. The source says:
Seventy-five day old female Sprague Dawley rats (weight range of 275 g-350 g) were obtained from Charles River Laboratories (Portage, Mich.). The animals were either bilaterally ovariectomized (OVX) or exposed to a Sham surgical procedure at Charles River Laboratories, and then shipped the day following surgery. Upon arrival, these rats were housed in metal hanging cases in groups of three or four animals per cage, and had ad libitum access to food (Teklad diet, TD 89222, 0.5% calcium, 0.4% phosphorous; Madison, Wis.) and water. Room temperature was maintained at 22.2° C.±1.7° C. with a minimum relative humidity of 40%. The photoperiod in the room was twelve hours light and twelve hours dark. Test compound preparation was the same as that described in the Estrogenicty assay above. After a one day acclimation period (two days post-OVX), dosing with test compounds was initiated. Oral gavages 20% CDX, representative compound of the invention (0.01 to 10 mg/kg), or 17α-ethynylestradiol (100 μg/kg) were delivered daily for 35 consecutive days. On the evening following the final dose, the animals were fasted. The next morning the animals were aneshetized with a mixture of Ketaset® and Rompun® (67 and 6.7 mg/kg respectively). […] Quantitation was achieved by measuring the total number of pixels in a standard region of interest proximal to the growth plate, over a gray scale range of zero to 60.

This is an account of results in patent US6403614B1, “Benzothiophenes” (Eli Lilly and Company, priority 1997, dated 2002).

Turning to `C#C[C@]1(O)CC[C@H]2[C@@H]3CCc4cc(O)ccc4[C@H]3CC[C@@]21C` [EE2, 17α-ethynylestradiol], the serum cholesterol entry in the assay on ovariectomized rats [1] is recorded as “caused a decrease in serum cholesterol”. For the same compound, the uterine weight result in the assay on ovariectomized rats [2] was “substantially greater than the uterine weight of untreated ovariectomized test animals”. In addition, the “eosinophil infiltration (uterine EPO)” value with ovariectomized rats [3] was “substantial, expected increase in eosinophil infiltration”.
Consider `CCOCOc1ccc(-c2sc3cc(OCOCC)ccc3c2C(=O)c2ccc(OCCN3CCCCC3)cc2)cc1` [Example 3, 2-(4-[Ethoxymethoxy]phenyl)-3-(4-[(2-Piperidin-1-yl)ethoxy]benzoyl)-6-Ethoxymethoxybenzo[b]thiophene], for which the “protection of the femur from bone loss (X-ray evaluation)” value in the assay on ovariectomized rats [4] is on record as 9.1%.
